# Measurements from ChEMBL document CHEMBL4052619, “First example of peptides targeting the dimer interface of Leishmania infantum trypanothione reductase with potent in vitro antileishmanial activity” (Eur J Med Chem, 2017).
# Activity calls are given as the source filed them. The rule behind the calls is not given here. Bridge positions count the residues as written; N and C are the ends. Square brackets hold non-standard residues; d marks the D form. Peptide text beside a SMILES is read from it. ξ: configuration not given here. ξQ = NC(=O)CCC(N)C(=O)O; ξNle = CCCCC(N)C(=O)O; Aib = CC(C)(N)C(=O)O
# Experiments:
# Leishmania infantum [1] = test: Antileishmanial activity against Leishmania infantum axenic amastigotes assessed as induction of cell death at 25 uM after 24 hrs by propidium iodide staining based flow cytometry; assay type: functional
# Trypanothione reductase [2] = target: T1, Trypanothione reductase (Leishmania infantum, UniProt A4HSF7); test: Inhibition of recombinant Leishmania infantum TryR preincubated for 10 mins followed by T[S]2 substrate addition and measured after 1 hr in presence of NADPH
# T1 sequence (A4HSF7 whole entry): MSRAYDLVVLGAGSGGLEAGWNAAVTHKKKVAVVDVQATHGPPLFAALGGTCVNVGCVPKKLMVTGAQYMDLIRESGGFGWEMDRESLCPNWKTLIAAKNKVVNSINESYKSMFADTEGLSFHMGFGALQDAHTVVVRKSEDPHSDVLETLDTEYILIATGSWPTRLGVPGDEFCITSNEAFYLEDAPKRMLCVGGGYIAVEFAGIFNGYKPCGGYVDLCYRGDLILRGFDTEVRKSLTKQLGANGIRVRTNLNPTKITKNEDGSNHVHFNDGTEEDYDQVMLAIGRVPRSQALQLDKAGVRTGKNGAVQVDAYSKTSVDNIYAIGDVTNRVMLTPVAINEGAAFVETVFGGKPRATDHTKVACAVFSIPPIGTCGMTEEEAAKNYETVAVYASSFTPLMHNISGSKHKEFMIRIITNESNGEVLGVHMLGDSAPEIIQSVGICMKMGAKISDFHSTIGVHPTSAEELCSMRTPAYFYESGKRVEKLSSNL
# Trypanothione reductase [3] = target: T1, Trypanothione reductase; test: Inhibition of recombinant His/FLAG-tagged Leishmania infantum TryR dimerization assessed as dimer disruption after 1 hr by ELISA
# Leishmania infantum [4] = test: Antileishmanial activity against Leishmania infantum MCAN/ES/89/IPZ229/1/89 promastigotes assessed as induction of cell death at 25 uM after 24 hrs by propidium iodide staining based flow cytometry; assay type: functional
# [5] = Stability assessed as Tritirachium album proteinase K- mediated compound degradation by measuring half life at 100 uM by HPLC method; assay type: ADME; details: parengyodontium album
# Leishmania infantum [6] = test: Drug localization in Leishmania infantum MCAN/ES/89/IPZ229/1/89 promastigotes after 24 hrs by fluorescence microscopic method; assay type: ADME; details: in vivo
# Leishmania infantum [7] = test: Drug localization in Leishmania infantum MCAN/ES/89/IPZ229/1/89 promastigotes flagellum after 4 hrs by fluorescence microscopic method; assay type: ADME; details: in vivo
# Leishmania infantum [8] = test: Antileishmanial activity against Leishmania infantum axenic amastigotes assessed as induction of cell death after 24 hrs by propidium iodide staining based flow cytometry; assay type: functional
# [9] = Cytotoxicity against human THP1 cells assessed as induction of cell death after 24 hrs by propidium iodide staining based flow cytometry; details: THP-1 cells, read-out: LC50
# Leishmania infantum [10] = test: Antileishmanial activity against Leishmania infantum MCAN/ES/89/IPZ229/1/89 promastigotes assessed as induction of cell death after 24 hrs by propidium iodide staining based flow cytometry; assay type: functional; details: MCAN/ES/89/IPZ229/1/89, 24 h
SMILES,Activity (Leishmania infantum [1]),IC50 (Trypanothione reductase [2]) [µM],IC50 (Trypanothione reductase [3]) [µM],Activity (Leishmania infantum [4]),half-life at 100 µM [5] [min],Drug uptake (Leishmania infantum [6]),Drug uptake (Leishmania infantum [7]),LC50 (Leishmania infantum [8]) [µM],CC50 at 24 h [9] [µM],LC50 (Leishmania infantum [10]) [µM]
CCCCC(NC(=O)[C@H](CCCCN)NC(=O)[C@@H]1CCCCNC(=O)CC[C@H](NC(=O)[C@H](CO)NC(=O)[C@H](CCC(N)=O)NC(=O)[C@@H](NC(=O)[C@@H](NC(=O)[C@H](CCCCN)NC(=O)[C@@H]2CCCN2C(C)=O)[C@@H](C)CC)[C@@H](C)CC)C(=O)NCC(=O)N[C@@H]([C@@H](C)CC)C(=O)N[C@@H](CO)C(=O)N1)C(N)=O (stereo not given in full) (Ac-PKIIQSEGISKK[ξNle]-NH2; lactam 7-11),inactive,> 75,> 75,inactive,,,,,,
"CCCCC(NC(=O)[C@H](CCCCN)NC(=O)C(CCCC)NC(=O)[C@H](CO)NC(=O)[C@@H](NC(=O)[C@@H]1CCCCNC(=O)CC[C@H](NC(=O)[C@@H](NC(=O)[C@H](CCCCN)NC(=O)[C@@H]2CCCN2C(C)=O)[C@@H](C)CC)C(=O)N[C@@H](CCC(N)=O)C(=O)NC(CO)C(=O)N[C@@H](C(C)C)C(=O)N1)[C@@H](C)CC)C(N)=O (single isomer, unassigned)",inactive,5.3,14.4,inactive,64,,,,,
CC[C@H](C)[C@H](NC(=O)CNC(=O)[C@@H]1CCCCNC(=O)CC[C@H](NC(=O)[C@H](CCCCN)NC(=O)[C@@H]2CCCN2C(C)=O)C(=O)N[C@@H]([C@@H](C)CC)C(=O)N[C@@H](CCC(N)=O)C(=O)N[C@@H](CO)C(=O)N1)C(N)=O (Ac-PKEIQSKGI-NH2; lactam 3-7),inactive,> 75,> 75,inactive,,,,,,
CC[C@H](C)[C@H](NC(=O)CNC(=O)[C@@H](NC(=O)[C@H](CO)NC(=O)[C@H](CCC(N)=O)NC(=O)[C@@H](NC(=O)[C@@H](NC(=O)[C@H](CCCCN)NC(=O)[C@@H]1CCCN1C(C)=O)[C@@H](C)CC)[C@@H](C)CC)C(C)C)C(N)=O,inactive,3.7,20.8,inactive,,,,,,
CCCCC(NC(=O)[C@H](CCCCN)NC(=O)C(CCCC)NC(=O)[C@H](CO)NC(=O)[C@@H](NC(=O)CNC(=O)[C@@H](NC(=O)[C@H](CO)NC(=O)[C@H](CCC(N)=O)NC(=O)[C@@H](NC(=O)[C@@H](NC(=O)[C@H](CCCCN)NC(=O)[C@@H]1CCCN1C(=O)COCCOCCNC(=S)Nc1ccc(-c2c3ccc(=O)cc-3oc3cc(O)ccc23)c(C(=O)O)c1)[C@@H](C)CC)[C@@H](C)CC)C(C)C)[C@@H](C)CC)C(=O)N[C@H](CCCNC(=N)N)NC(=O)[C@H](CCCNC(=N)N)NC(=O)[C@H](CCCNC(=N)N)NC(=O)[C@H](CCCNC(=N)N)NC(=O)[C@H](CCCNC(=N)N)NC(=O)[C@H](CCCNC(=N)N)NC(=O)[C@H](CCCNC(=N)N)NC(=O)[C@H](CCCNC(=N)N)NC(=O)[C@@H](N)CCCNC(=N)N (stereo not given in full),,,,,,Active,Active,,,
"CC[C@H](C)[C@H](NC(=O)[C@@H]1CCCCNC(=O)CC[C@H](NC(=O)[C@@H](NC(=O)[C@H](CCCCN)NC(=O)[C@@H]2CCCN2C(C)=O)[C@@H](C)CC)C(=O)N[C@@H](CCC(N)=O)C(=O)NC(CO)C(=O)N[C@@H](C(C)C)C(=O)N1)C(N)=O (single isomer, unassigned)",inactive,> 75,> 75,inactive,,,,,,
CCCCC(NC(=O)[C@H](CCCCN)NC(=O)C(CCCC)NC(=O)[C@H](CO)NC(=O)[C@@H](NC(=O)CNC(=O)[C@@H]1CCCCNC(=O)CC[C@H](NC(=O)[C@H](CCCCN)NC(=O)[C@@H]2CCCN2C(=O)[C@H](CCCNC(=N)N)NC(=O)[C@H](CCCNC(=N)N)NC(=O)[C@H](CCCNC(=N)N)NC(=O)[C@H](CCCNC(=N)N)NC(=O)[C@H](CCCNC(=N)N)NC(=O)[C@H](CCCNC(=N)N)NC(=O)[C@H](CCCNC(=N)N)NC(=O)[C@H](CCCNC(=N)N)NC(=O)[C@H](CCCNC(=N)N)NC(C)=O)C(=O)N[C@@H]([C@@H](C)CC)C(=O)N[C@@H](CCC(N)=O)C(=O)N[C@@H](CO)C(=O)N1)[C@@H](C)CC)C(N)=O (stereo not given in full) (Ac-RRRRRRRRRPKEIQSKGIS[ξNle]K[ξNle]-NH2; lactam 12-16),,,,,,,,2.8,2.5,3.5
CCCCC(NC(=O)[C@H](CCCCN)NC(=O)C(CCCC)NC(=O)[C@H](CO)NC(=O)[C@@H](NC(=O)CNC(=O)[C@@H](NC(=O)[C@H](CO)NC(=O)[C@H](CCC(N)=O)NC(=O)[C@@H](NC(=O)[C@@H](NC(=O)[C@H](CCCCN)NC(=O)[C@@H]1CCCN1C(=O)[C@H](CCCNC(=N)N)NC(=O)[C@H](CCCNC(=N)N)NC(=O)[C@H](CCCNC(=N)N)NC(=O)[C@H](CCCNC(=N)N)NC(=O)[C@H](CCCNC(=N)N)NC(=O)[C@H](CCCNC(=N)N)NC(=O)[C@H](CCCNC(=N)N)NC(=O)[C@H](CCCNC(=N)N)NC(=O)[C@H](CCCNC(=N)N)NC(C)=O)[C@@H](C)CC)[C@@H](C)CC)C(C)C)[C@@H](C)CC)C(N)=O (stereo not given in full) (Ac-RRRRRRRRRPKIIQSVGIS[ξNle]K[ξNle]-NH2),,,,,,,,3.5,1.7,4.6
CCCCC(NC(=O)[C@H](CCCCN)NC(=O)C(CCCC)NC(=O)[C@H](CO)NC(=O)[C@@H](NC(=O)CNC(=O)[C@@H]1CCCCNC(=O)CC[C@H](NC(=O)[C@H](CCCCN)NC(=O)[C@@H]2CCCN2C(=O)C(C)(C)NC(=O)[C@H](CCCNC(=N)N)NC(=O)[C@H](CCCNC(=N)N)NC(=O)C(C)(C)NC(=O)[C@H](CCCNC(=N)N)NC(=O)[C@H](CCCNC(=N)N)NC(=O)C(C)(C)NC(=O)[C@H](CCCNC(=N)N)NC(=O)[C@H](CCCNC(=N)N)NC(C)=O)C(=O)N[C@@H]([C@@H](C)CC)C(=O)NC(CCC(N)=O)C(=O)N[C@@H](CO)C(=O)N1)[C@@H](C)CC)C(N)=O (stereo not given in full) (Ac-RR[Aib]RR[Aib]RR[Aib]PKEI[ξQ]SKGIS[ξNle]K[ξNle]-NH2; lactam 12-16),,,,,,,,10.4,5.2,6.4
CCCCC(NC(=O)[C@@H]1CCCCNC(=O)CC[C@H](NC(=O)[C@@H](NC(=O)[C@H](CO)NC(=O)[C@H](CCC(N)=O)NC(=O)[C@@H](NC(=O)[C@@H](NC(=O)[C@H](CCCCN)NC(=O)[C@@H]2CCCN2C(C)=O)[C@@H](C)CC)[C@@H](C)CC)C(C)C)C(=O)N[C@@H]([C@@H](C)CC)C(=O)N[C@@H](CO)C(=O)NC(CCCC)C(=O)N1)C(N)=O (stereo not given in full),inactive,27,12.1,inactive,,,,,,
CCCCCCCCCCCCCCCCCCOCC(COP(=O)([O-])OCC[N+](C)(C)C)OC (stereo not given) [EDELFOSINE],,,,,,,,0.6,1,9
CCCCC(NC(=O)[C@H](CCCCN)NC(=O)C(CCCC)NC(=O)[C@H](CO)NC(=O)[C@@H](NC(=O)CNC(=O)[C@@H]1CCCCNC(=O)CC[C@H](NC(=O)[C@H](CCCCN)NC(=O)[C@@H]2CCCN2C(C)=O)C(=O)N[C@@H]([C@@H](C)CC)C(=O)N[C@@H](CCC(N)=O)C(=O)N[C@@H](CO)C(=O)N1)[C@@H](C)CC)C(N)=O (stereo not given in full) (Ac-PKEIQSKGIS[ξNle]K[ξNle]-NH2; lactam 3-7),inactive,0.9,9.9,inactive,52,,,,,
CC(=O)N[C@@H](CCCNC(=N)N)C(=O)N[C@@H](CCCNC(=N)N)C(=O)N[C@@H](CCCNC(=N)N)C(=O)N[C@@H](CCCNC(=N)N)C(=O)N[C@@H](CCCNC(=N)N)C(=O)N[C@@H](CCCNC(=N)N)C(=O)N[C@@H](CCCNC(=N)N)C(=O)N[C@@H](CCCNC(=N)N)C(=O)N[C@@H](CCCNC(=N)N)C(N)=O,,,,,,,,> 25,> 25,> 25
CCCCC(NC(=O)[C@H](CCCCN)NC(=O)C(CCCC)NC(=O)[C@H](CO)NC(=O)[C@@H](NC(=O)CNC(=O)[C@@H](NC(=O)[C@H](CO)NC(=O)[C@H](CCC(N)=O)NC(=O)[C@@H](NC(=O)[C@@H](NC(=O)[C@H](CCCCN)NC(=O)[C@@H]1CCCN1C(C)=O)[C@@H](C)CC)[C@@H](C)CC)C(C)C)[C@@H](C)CC)C(N)=O (stereo not given in full),inactive,1.2,13.5,inactive,23,,,,,
CCCCC(NC(=O)[C@H](CCCCN)NC(=O)C(CCCC)NC(=O)[C@H](CO)NC(=O)[C@@H](NC(=O)CNC(=O)[C@@H](NC(=O)[C@H](CO)NC(=O)[C@H](CCC(N)=O)NC(=O)[C@@H](NC(=O)[C@@H](NC(=O)[C@H](CCCCN)NC(=O)[C@@H]1CCCN1C(C)=O)[C@@H](C)CC)[C@@H](C)CC)C(C)C)[C@@H](C)CC)C(=O)N[C@@H](CCCNC(=N)N)C(=O)N[C@@H](CCCNC(=N)N)C(=O)N[C@@H](CCCNC(=N)N)C(=O)N[C@@H](CCCNC(=N)N)C(=O)N[C@@H](CCCNC(=N)N)C(=O)N[C@@H](CCCNC(=N)N)C(=O)N[C@@H](CCCNC(=N)N)C(=O)N[C@@H](CCCNC(=N)N)C(=O)N[C@@H](CCCNC(=N)N)C(N)=O (stereo not given in full),,,,,,,,2.1,0.8,4.4
